{"source": "patent US9359616B2", "about": "“Ribosomal polynucleotides and related expression systems” (The Scripps Research Institute, priority 2012, dated 2016)", "key": {"wild type 40S subunits": {"system": "wild type 40S subunits", "assay": "35S-Met/Cys pulse labeling of transfected N2a cells cultured with increasing concentrations of pactamycin (wild type ribosomes)", "format": "cell-based, mouse", "conditions": "100 ng/ml pactamycin, could be further blocked at higher concentrations, SDS-PAGE of 35S-labeled lysates (FIG. 4d)", "text": "There were no reports of functionally tested examples of nucleotide changes conferring antibiotic resistance in higher eukaryotes. Pactamycin affects translation by binding to rRNA in the E-site of the small subunit and disrupting the positioning of mRNA at this site. The result of pactamycin-binding is a block in […] and the accumulation of di-peptides resulting from aborted initiation events. Analyzed were the effects of mutations in mouse 18S rRNA at four residues, G963, A964, C1065 and C1066 in SEQ ID NO:23. These residues correspond, respectively, to positions 693, 694, 795 and 796 at the E-site of E. coli 16S rRNA which were identified from crystal structures. Unless otherwise noted, the numbering of these sites in mammalian 18S rRNA sequences is based on that in E. coli 16S rRNA. […] Pactamycin resistance was assessed by 35S-Met/Cys pulse labeling of transfected cells in the presence of 100 ng/ml antibiotic. […] Mutated ribosomes were also analyzed for their ability to translate a luciferase mRNA in cells transfected with a luciferase reporter plasmid (pGL4.13), and cultured in the presence of 100 ng/ml pactamycin (FIG. 4b).\nThe levels of synthetic 18S rRNA for constructs with each mutation were monitored using the hybridization tag and found no substantial differences that could account for the difference in translation between G693A and the other mutations (FIG. 4c). […]"}, "[1]": {"system": "mutated subunits (G693A 18S rRNA)", "assay": "35S-Met/Cys pulse labeling of transfected N2a cells cultured with increasing concentrations of pactamycin (G693A mutated ribosomes)", "format": "cell-based, mouse", "conditions": "even at the highest concentration tested of 6,400 ng/ml pactamycin; N2a cells (FIG. 4d)"}}}
{"smiles": "CC(=O)c1cccc(N[C@H]2[C@H](N)[C@@](NC(=O)N(C)C)([C@H](C)O)[C@@](C)(O)[C@@]2(O)COC(=O)c2c(C)cccc2O)c1", "note": "[pactamycin]", "values": [{"measurement": "translation from wild type 40S subunits", "setting": "wild type 40S subunits", "result": "substantially blocked"}, {"measurement": "translation from the mutated subunits", "setting": "[1]", "result": "unaffected"}]}
